Among the data in patent US10106534B2 (CELGENE QUANTICEL RESEARCH, INC., priority 2014, dated 2018) are IC50 values, retold here.

For one test, the target named is JMJD2C (Homo sapiens (Human), UniProt Q9H3R0). In words: In vitro enzyme inhibition assay for JMJD2C activity (TR-FRET). It counts as biochemical. Put shortly: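 Demethylation product H3K9me2 quantified by TR-FRET ratio 665/615 after EDTA stop and 1 h with Eu-anti-H3K9me2 and streptavidin-APC; IC50 by curve fit. Reaction: 0.3 nM JMJD2C (AA 2-372, baculovirus), 2 μM α-ketoglutarate, 300 nM biotin-H3K9me3 peptide, pH 7.3 HEPES with Fe(II)/ascorbate, 30 min room temperature.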

Test [1] has as its system KYSE-150 esophageal carcinoma cell line. In words: In vitro cell-based assay: cellular proliferation via BrdU incorporation (ELISA). Set-up: species or system human. As to conditions: Homo sapiens, KYSE-150, 168 hours compound incubation. As to the method: The primary cellular assay for JMJD2C inhibition is an assay which measures cellular proliferation via Bromodeoxyuridine (BrdU) incorporation after 168 hours of compound incubation. Cell lines tested include the JMJD2C gene amplified cell line KYSE-150. This is a quantitative ELISA assay measuring DNA incorporation of BrdU during S-phase as a direct readout of cellular proliferation.
Assay Principle: This is a colorimetric immunoassay for the quantification of cell proliferation. Cells treated for 168 hours with test compounds are assayed for their ability to go through S-phase as a measure of their proliferative potential.
Assay Method: The human KYSE-150 (SMAD4 mut, TP53 mut) esophageal carcinoma cell line was seeded at 2,000 cells/well on a 96-well tissue culture treated plate. After an overnight incubation, cells were treated with compound in an 11-point dilution series with final concentrations ranging from 100 μM to 2 nM. Cells were then incubated in the presence of compound for 168 hours. After compound incubation the cells were assayed using a BrdU Cell Proliferation ELISA (Roche). The cells were first incubated with BrdU labeling reagent for 2 hours. After 2 hours, the BrdU incorporated cells were fixed and denatured, probed with an anti-BrdU-Peroxidase antibody for 1.5 hours and washed. Finally, a tetramethylbenzidine peroxidase substrate was added to each well for 15 minutes followed by a H2SO4 stop solution. The plate was read at 450 nm, and the raw optical density data was transferred into XLFit (IDBS) for IC50 calculation using the formula: fit=(D+((Vmax*(x^n))/((x^n)+(Km^n))))

Molecules are shown by their SMILES. Where only a bound is given, the exact number is not on record here.

Sequence of JMJD2C (Q9H3R0 2-372): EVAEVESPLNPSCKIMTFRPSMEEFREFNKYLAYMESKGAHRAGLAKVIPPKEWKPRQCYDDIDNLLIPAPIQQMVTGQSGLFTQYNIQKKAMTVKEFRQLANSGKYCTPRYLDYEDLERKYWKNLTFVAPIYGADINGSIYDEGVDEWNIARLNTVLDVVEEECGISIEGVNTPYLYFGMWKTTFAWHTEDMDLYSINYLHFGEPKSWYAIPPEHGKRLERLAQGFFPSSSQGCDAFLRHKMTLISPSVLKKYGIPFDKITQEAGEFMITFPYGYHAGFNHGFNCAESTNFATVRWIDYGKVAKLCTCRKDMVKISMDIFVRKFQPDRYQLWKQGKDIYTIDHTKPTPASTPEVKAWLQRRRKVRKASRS

In the case of `Cc1cc(F)ccc1Oc1ccc2c(c1)CCC[C@H]2CNc1cnccc1C(=O)O` [Example 64, 3-({[(1R)-6-(4-fluoro-2-methylphenoxy)-1,2,3,4-tetrahydronaphthalen-1-yl]methyl}amino)pyridine-4-carboxylic acid], the IC50 is 100 to 1000 nM on JMJD2C and no more than 100 nM in test [1].

Regarding `CC(C)c1ccc(N(C)c2ccc3c(c2)OCC[C@H]3CNc2cnccc2C(=O)O)nc1` [Example 199, 3-({[(4R)-7-{methyl[5-(propan-2-yl)pyridin-2-yl]amino}-3,4-dihydro-2H-1-benzopyran-4-yl]methyl}amino)pyridine-4-carboxylic acid], the IC50 is 100 to 1000 nM at JMJD2C and no more than 100 nM in test [1].

As to `CCCc1ccc(N(C)c2ccc3c(c2)OCC[C@H]3CNc2cnccc2C(=O)O)cc1` [Example 208, 3-({[(4R)-7-[methyl(4-propylphenyl)amino]-3,4-dihydro-2H-1-benzopyran-4-yl]methyl}amino)pyridine-4-carboxylic acid], the values for the 50% inhibitory concentration (IC50) (at JMJD2C; in test [1]) were 1000 to 10000 nM and no more than 100 nM, respectively.

For the compound `O=C(O)c1ccncc1NC[C@@H]1CCCc2cc(Sc3ccc(F)cc3)ccc21` [Example 77, 3-({[(1R)-6-[(4-fluorophenyl)sulfanyl]-1,2,3,4-tetrahydronaphthalen-1-yl]methyl}amino)pyridine-4-carboxylic acid], the results for the IC50 (on JMJD2C; in test [1]) were 100 to 1000 nM and no more than 100 nM, respectively.

As for `CN(c1ccc(C2CC2)cc1)c1ccc2c(c1)CCC[C@H]2CNc1cnccc1C(=O)O` [Example 161, 3-({[(1R)-6-[(4-cyclopropylphenyl)(methyl)amino]-1,2,3,4-tetrahydronaphthalen-1-yl]methyl}amino)pyridine-4-carboxylic acid], the results for the IC50 (on JMJD2C; in test [1]) were 1000 to 10000 nM and no more than 100 nM, respectively.

On to `COCCOc1ccc(N(C)c2ccc3c(c2)CCC[C@H]3CNc2cnccc2C(=O)O)cc1` [Example 197, 3-({[(1R)-6-{[4-(2-methoxyethoxy)phenyl](methyl)amino}-1,2,3,4-tetrahydronaphthalen-1-yl]methyl}amino)pyridine-4-carboxylic acid], for which the IC50 against JMJD2C is 100 to 1000 nM; in test [1], no more than 100 nM.

As for `CN(c1ccc(C#N)cc1)c1ccc2c(c1)CCC[C@H]2CNc1cnccc1C(=O)O` [Example 103, 3-({[(1R)-6-[(4-cyanophenyl)(methyl)amino]-1,2,3,4-tetrahydronaphthalen-1-yl]methyl}amino)pyridine-4-carboxylic acid], the IC50 (on JMJD2C; in test [1]) was 100 to 1000 nM throughout.

Turning to `CN(c1ccc2c(c1)CCC[C@H]2CNc1cnccc1C(=O)O)c1ccn(C)n1` [Example 125, 3-({[(1R)-6-[methyl(1-methyl-1H-pyrazol-3-yl)amino]-1,2,3,4-tetrahydronaphthalen-1-yl]methyl}amino)pyridine-4-carboxylic acid], the IC50 (on JMJD2C; in test [1]) was 100 to 1000 nM each time.

In the case of `Cc1ccc(F)cc1-c1ccc2c(c1)OCC[C@H]2CNc1cnccc1C(=O)O` [Example 43, 3-({[(4R)-7-(5-fluoro-2-methylphenyl)-3,4-dihydro-2H-1-benzopyran-4-yl]methyl}amino)pyridine-4-carboxylic acid], the IC50 was 100 to 1000 nM against JMJD2C and no more than 100 nM in test [1].

In the case of `CN(c1ccc(N2CC(O)C2)cc1)c1ccc2c(c1)CCC[C@H]2CNc1cnccc1C(=O)O` [Example 200, 3-({[(1R)-6-{[4-(3-hydroxyazetidin-1-yl)phenyl](methyl)amino}-1,2,3,4-tetrahydronaphthalen-1-yl]methyl}amino)pyridine-4-carboxylic acid], the IC50 (at JMJD2C; in test [1]) was 100 to 1000 nM in each case.

Regarding `Cc1cccc(Sc2ccc3c(c2)CCC[C@H]3CNc2cnccc2C(=O)O)c1` [Example 69, 3-({[(1R)-6-[(3-methylphenyl)sulfanyl]-1,2,3,4-tetrahydronaphthalen-1-yl]methyl}amino)pyridine-4-carboxylic acid], the IC50 at JMJD2C lay within 1000 to 10000 nM; in test [1], 100 to 1000 nM.

In the case of `CN(c1ccc2c(c1)CCC[C@H]2CNc1cnccc1C(=O)O)c1ccn(C)c(=O)c1` [Example 155, 3-({[(1R)-6-[methyl(1-methyl-2-oxo-1,2-dihydropyridin-4-yl)amino]-1,2,3,4-tetrahydronaphthalen-1-yl]methyl}amino)pyridine-4-carboxylic acid], the concentration for half-maximal inhibition (IC50) was 100 to 1000 nM against JMJD2C and greater than 10000 nM in test [1].

`CCc1ccc2c(c1)CCC[C@H]2CNc1cnccc1C(=O)O` [Example 91, 3-({[(1R)-6-ethyl-1,2,3,4-tetrahydronaphthalen-1-yl]methyl}amino)pyridine-4-carboxylic acid]: the IC50 against JMJD2C lay within 100 to 1000 nM; in test [1] it was 1000 to 10000 nM.

In the case of `O=C(O)c1ccncc1NCC1CCCc2cc(Sc3ccccn3)ccc21` (stereo not shown) [Example 80, 3-({[6-(pyridin-2-ylsulfanyl)-1,2,3,4-tetrahydronaphthalen-1-yl]methyl}amino)pyridine-4-carboxylic acid], the IC50 fell in the range of 100 to 1000 nM against JMJD2C and 1000 to 10000 nM in test [1].

As for `COc1cc(N(C)c2ccc3c(c2)OCC[C@H]3CNc2cnccc2C(=O)O)ccc1F` [Example 112, 3-({[(4R)-7-[(4-fluoro-3-methoxyphenyl)(methyl)amino]-3,4-dihydro-2H-1-benzopyran-4-yl]methyl}amino)pyridine-4-carboxylic acid], the IC50 at JMJD2C was in the range of 100 to 1000 nM; in test [1] it was 1000 to 10000 nM.

Turning to `CN(c1ccc(N2CCCC2)cc1)c1ccc2c(c1)CCC[C@H]2CNc1cnccc1C(=O)O` [Example 167, 3-({[(1R)-6-{methyl[4-(pyrrolidin-1-yl)phenyl]amino}-1,2,3,4-tetrahydronaphthalen-1-yl]methyl}amino)pyridine-4-carboxylic acid], the values for the IC50 (at JMJD2C; in test [1]) were 100 to 1000 nM and no more than 100 nM, respectively.

Take `CN(c1ccc2c(c1)OCC[C@H]2CNc1cnccc1C(=O)O)c1ccc(Cl)cn1` [Example 152, 3-({[(4R)-7-[(5-chloropyridin-2-yl)(methyl)amino]-3,4-dihydro-2H-1-benzopyran-4-yl]methyl}amino)pyridine-4-carboxylic acid]: the IC50 (at JMJD2C; in test [1]) was 100 to 1000 nM each time.

For the compound `Cc1ccc(N(C)c2ccc3c(c2)OCC[C@H]3CNc2cnccc2C(=O)O)cc1F` [Example 151, 3-({[(4R)-7-[(3-fluoro-4-methylphenyl)(methyl)amino]-3,4-dihydro-2H-1-benzopyran-4-yl]methyl}amino)pyridine-4-carboxylic acid], the IC50 on JMJD2C was 100 to 1000 nM; in test [1], no more than 100 nM.

For the compound `CN(c1ccc(N2CCCC2)cc1)c1ccc2c(c1)OCC[C@H]2CNc1cnccc1C(=O)O` [Example 179, 3-({[(4R)-7-{methyl[4-(pyrrolidin-1-yl)phenyl]amino}-3,4-dihydro-2H-1-benzopyran-4-yl]methyl}amino)pyridine-4-carboxylic acid], the values for the IC50 (against JMJD2C; in test [1]) were 100 to 1000 nM and no more than 100 nM, respectively.

Take `O=C(O)c1ccncc1NC[C@@H]1CCOc2cc(Sc3cccc(F)c3)ccc21` [Example 53, 3-({[(4R)-7-[(3-fluorophenyl)sulfanyl]-3,4-dihydro-2H-1-benzopyran-4-yl]methyl}amino)pyridine-4-carboxylic acid]: the IC50 (at JMJD2C; in test [1]) was 100 to 1000 nM in each case.
